The record followed here is patent US20210030673A1, “Method and a Compound for Preventing Mammalian Cancer Cell Proliferation and for Treating Cancer” (Oy Granula Ab Ltd., priority 2019, published 2021).

Data set [1] concerns metastatic prostate cancer (PC-3) cells. Nature of the data set: Live-cell imaging of PC-3 proliferation, BA or BOA. The conditions noted are these: 48-hour treatment. It counts as cell-based, human. Here is the method: (§1) One day prior to the treatment, the cells were counted and plated on 24-well plates (Falcon) and incubated overnight at +37° C. (5% CO2). The following day, the cells were treated betulinic acid (BA) or betulonic acid (BOA) in concentrations of 0, 10, 50, 70, 100, and 150 μM. 1% DMSO was used to control for the effects of the solvent. All samples were made in triplicates. The cells were imaged for 48 h with 2 h intervals (9 images per well) using IncuCyte S3 Live-Cell Analysis System (Essen BioScience).

Data set [2] has as its system normal human dermal fibroblast (HDF) cells.
Text: Results are mean values from three independent experiments (±SEM).
Data set [3] in a line: Cytotoxicity assay of BA and BOA (Cell Counting Kit-8), PC-3. To be noted: human, PC-3 metastatic prostate cancer cells.
Experimental: (§2) Cells were seeded with 5000 cells/well on a 96-well plate (Falcon) in RPMI-1640 medium (PC-3 cells) or DMEM medium (WM-266-4 cells) supplemented with 10% fetal bovine serum, 2 mM L-glutamine, 100 U/ml penicillin, and 100 μg/ml streptomycin. The cells were incubating overnight in +37° C., 5% CO2 for the cells to adhere to the plate. The following day, cells were treated with BA or BOA (prepared from stock solutions using DMSO as solvent) in concentrations of 0-200 μM in complete medium in replicate samples and incubated for 48 h. The old medium was thereafter discarded and substituted with 100 μL 10% Cell Counting Kit-8 reagent (Dojindo Molecular Technologies) diluted in serum-free RPMI-1640 medium. The samples were incubated for an additional 1 h prior to analyzing cell viability by measuring the absorbance at 450 nm using a microplate reader (Hidex Sense) according to manufacturer's protocol. Non-treated cells were used as a negative control. 1% DMSO was used to control for effect of solvent. All samples contained 1% or less DMSO. The experiment was repeated at least three independent times for accurate cytotoxicity analysis. The IC50-value was calculated using GraphPad Prism 6 software.
The test system of data set [4] is metastatic prostate cancer (PC-3) cells. Described as above. To be noted: read-out: IC50-value, cell viability, PC-3.
Experimental: as §2
The nature of data set [5]: Cytotoxicity assay of BA and BOA (Cell Counting Kit-8), WM-266-4. To be noted: human, WM-266-4 metastatic melanoma cells.
Experimental: as §2
Data set [6] has as its system metastatic melanoma (WM-266-4) cells. The data set is described as above. The conditions noted are these: read-out: IC50-value, cell viability, WM-266-4.
Experimental: as §2
The test system is the same in data set [7]. The data set can be described thus: Live-cell imaging of WM-266-4 proliferation, BOA. The format is cell-based, human. The conditions noted are these: 48-hour treatment. Here is the method:
as §1

Data set [8] deals with metastatic prostate cancer (PC-3) cells. The conditions noted are these: 100 µM.
Experimental: as §2
Data set [9] concerns metastatic melanoma (WM-266-4) cells. To be noted: 100 µM.
Experimental: as §2
The mark [10] stands for this setting: 48 h treatment, complete medium.

Like-named read-outs stand apart in the source and are kept apart here.

For orientation: viability means a read-out of living cells in per cent, often relative to untreated cells. Lower therefore signals more harm to the cells. Broadly, the IC50 is the concentration needed to halve the response being measured.

`C=C(C)[C@@H]1CC[C@]2(C(=O)O)CC[C@]3(C)[C@H](CC[C@@H]4[C@@]5(C)CC[C@H](O)C(C)(C)[C@@H]5CC[C@]43C)[C@@H]12` [BA, betulinic acid]: in [1], the “concentration giving maximum decrease of PC-3 proliferation” value was found to be 50 µM. The “effect on HDF cell proliferation” value in data set [2] is recorded as “neither BA or BOA had any significant effects on HDF cells”. For the same molecule, the viability at 48 h, 100 µM in [3] and in data set [5] was roughly 0% throughout. Moreover, the concentration for half-maximal inhibition (IC50) was determined as 68 µM in [4] (Homo sapiens, PC-3, 48 h) and 64.7 µM in data set [6] (Homo sapiens, WM 266-4, 48 h).
As for `C=C(C)[C@@H]1CC[C@]2(C(=O)O)CC[C@]3(C)[C@H](CC[C@@H]4[C@@]5(C)CCC(=O)C(C)(C)[C@@H]5CC[C@]43C)[C@@H]12` [BOA, betulonic acid], the “concentration giving maximum decrease of PC-3 proliferation” value in data set [1] was 50 µM. Besides, the “concentration giving maximal decrease in WM-266-4 proliferation” value in [7] stood at 50 µM. Further, the “viability of PC-3 cells” value in [8] is on record as “below 20%”. In addition, in data set [9], the “viability of WM-266-4 cells” value is reported as “below 20%”. The “effect on HDF cell proliferation” value in data set [2] was “neither BA or BOA had any significant effects on HDF cells”. In addition, the half-inhibitory concentration (IC50) in data set [4] (setting [10]) came out at 78.5 µM; in [6] (setting [10]), 39.8 µM.
